According to US20210330735A1, “COMPOSITIONS AND METHODS FOR THE TREATMENT OF TRAUMATIC OPTIC NEUROPATHY” (Stealth BioTherapeutics Corp, priority 2018, published 2021):
“And” between values parts separate entries of the source, which are not always exact repeats. Identical values can stand only once. Non-standard residues stand in square brackets, D forms with d. Residues, ends and D or L forms follow the SMILES beside them. No end group written: not given here. Dmt = Cc1cc(O)cc(C)c1C[C@H](N)C(=O)O

How the values were obtained:
[1] = system: several mammalian cell types; conditions: energy-independent manner; cited from earlier work
[2] = system: subjects suspected of having or diagnosed as having TON; experiment: Treatment of subjects with TON, Example 1 (predicted); format: in vivo; conditions: for effect in combination with one or more additional therapeutic agents: compared with peptide or additional agent alone, expected; for severity of symptoms associated with TON: daily 1 mg/kg body weight, predicted
Experimental: Subjects suspected of having or diagnosed as having TON receive daily administrations of 1 mg/kg body weight of aromatic-cationic peptide, such as 2′6′-Dmt-D-Arg-Phe-Lys-NH2, Phe-D-Arg-Phe-Lys-NH2, or D-Arg-2′6′-Dmt-Lys-Phe-NH2, or a pharmaceutically acceptable salt thereof (such as an mono, bis, or tri-acetate salt, a tartrate salt, a fumarate salt, a mono, bis, or tri-HCl salt, a mono, bis, or tri-tosylate salt, or a mono, bis, or tri-trifluoroacetate salt) alone or in combination with one or more additional therapeutic agents for the treatment or prevention of TON. Peptides and/or additional therapeutic agents are administered orally, topically, systemically, intravenously, subcutaneously, intravitreally, intraperitoneally, or intramuscularly according to methods known in the art. Subjects will be evaluated weekly for the presence and/or severity of signs and symptoms associated with TON including, but not limited to, e.g., vision loss, blurred vision, RGC damage, scotoma, decreased color sensation, uveitis, optic neuritis, eye pain, optic nerve avulsion, optic nerve transection, optic nerve sheath hemorrhage, orbital hemorrhage, choroidal rupture, and commotio retinae. Treatments are maintained until such a time as one or more signs or symptoms of TON are ameliorated or eliminated.

[3] = system: retinal ganglion cells (RGCs); experiment: Sequential administration study, PERG after US-TON (SI-TON), Example 4; format: in vivo, mice; conditions: 5 mg/kg 4-AP added to any formulation from two weeks post-injury, two and four weeks post treatment
Experimental: (§1) The sequential administration study was conducted as depicted in FIG. 4. A baseline visual function of retinal ganglion cells (RGCs) was obtained using pattern electroretinography (PERG) to record the electrical activity of RGCs, Optical Coherence Tomography (OCT) to evaluate the thickness of the Retinal Nerve Fiber Layer (RNFL), and Heidelberg Retina Topography (HRT) to evaluate subtle changes in the optic nerve caused by trauma. At day zero, US-TON (SI-TON) was induced by a microtip probe sonifier placed on the supraorbital ridge directly above the entrance of the optic nerve into the bony canal, as described in Example 2.
(§2) On the first day, six mice were administered either a bolus subcutaneous injection of 3 mg/kg ([…]) Etanercept (Enbrel™, Groups 1 and 2), 10 mg/kg (300 μg per 30 g mouse) D-Arg-2′6′-Dmt-Lys-Phe-NH2(MTP-131, Groups 3 and 4), or PBS (Groups 5 and 6), followed by daily injections of the drug formulation for a period of 3 days. On the sixth day, Groups 1 and 2 were administered a bolus subcutaneous injection of 10 mg/kg (300 μg per 30 g mouse) D-Arg-2′6′-Dmt-Lys-Phe-NH2; Groups 3 and 4 were administered a bolus subcutaneous injection of 3 mg/kg ([…]) Etanercept; and Groups 5 and 6 received PBS, followed by daily injections of the drug formulation for three days. […]

[4] = system: Retinal Nerve Fiber Layer (RNFL) and Inner Plexiform Layer (IPL); experiment: Sequential administration study, OCT thickness of RNFL and IPL after US-TON (SI-TON), Example 4; format: in vivo, mice; conditions: four weeks after treatments
Experimental: as §1, §2

[5] = system: retinal ganglion cells (RGCs); experiment: Safety and efficacy of acute intravitreal administration, PERG before and after SI-TON, Example 5; format: in vivo, C57BL/6 J mice
Experimental: To determine the safety of acute intravitreal administration of aromatic-cationic peptides in vivo, SI-TON was induced in 3-month-old C57BL/6 J mice with a Branson Digital Sonifier 450 (Branson) by a 3 mm microtip probe (Branson) in an acoustic soundproof enclosure chamber, as described in Example 2. Fifteen minutes following the induction of TON, a group of ten mice were administered 1.3 μL of 100 nM D-Arg-2′6′-Dmt-Lys-Phe-NH2 (MTP-131) intravitreally in the left eye (OS, treated). A different subset of mice was administered control PBS solution intravitreally in the left eye (OS, treated) followed by subcutaneous injection with 5 mg/kg D-Arg-2′6′-Dmt-Lys-Phe-NH2 fifteen minutes post-injury. A baseline recording of the mice visual function was recorded using electrophysiological recording of RGCs through PERG prior to SI-TON induction and the functional visual outcome of the mice was tested again 4 weeks post-injury.

[6] = system: retinal ganglion cells (RGC); experiment: RGC survival in optic nerve crush-induced TON (ONC-TON) model, Example 2; format: in vivo, rat; conditions: two weeks following injury, early use, peptide 2 mg/kg SQ for 7 days
From the text: ONC-TON is induced by exposing the optic nerve of an adult rat and creating a small opening in the meninges of the nerve, as described in Solomon, A. et al., J. of Neurosci. Methods (1996) 70: 21-25, (incorporated herein by reference). The opening is created about 2-3 mm behind the eye globe. A glass dissector is introduced through the opening and is used to cut all the axons through the whole width of the nerve. Complete […] of the optic nerve axons is achieved, while retaining the continuity of the meninges and avoiding damage to the nerve's vascular supply. Transection can be confirmed by transillumination showing a complete gap in the continuity of the nerve axons, and by both morphological and electrophysiological criteria. The opening created in the ‘meningeal tube’ can be used to inject substances that may be of benefit in recovery, rescue and/or regeneration of the injured axons. […]
(§3) A baseline recording of visual function by pattern electroretinogram (PERG) and imaging of the optic disc was performed prior to inducing SI-TON or ONC-TON. […] Euthanized animals were evaluated for RGC dropout by flat mount. […]
To test if a combinatorial strategy results in improved visual outcomes, a therapeutic agent, such as a TNF-alpha inhibitor (e.g., etanercept), D-Arg-2′6′-Dmt-Lys-Phe-NH2, or a combination of these pharmaceutical agents was assessed. […]

[7] = system: retinal ganglion cells (RGC); experiment: RGC survival in sonication-induced TON (SI-TON) model, Example 2; format: in vivo, mice; conditions: two weeks following injury, early use, peptide 2 mg/kg SQ for 7 days
From the text: SI-TON is induced by a microtip probe sonifier placed on the supraorbital ridge directly above the entrance of the optic nerve into the bony canal, as described in Tao, W. et al., Scientific Reports (2017) 7: 11779 (incorporated herein by reference). An ultrasonic pulse is then delivered to the optic nerve. After injury, the number of RGCs in the retina as well as visual function measured by PERG steadily decrease over a two-week period. […] The SI-TON model is capable of delivering a non-contact concussive injury to the optic nerve and induce TON in mice.
Two models for TON were utilized in this example: a novel sonication-induced TON (SI-TON) that closely recapitulates the clinical manifestations of indirect TON, and optic nerve crush-induced TON (ONC-TON) which reflects a more severe form of TON often resulting in axotomized nerve fibers and ruptured nervous vasculature. […]
as §3
To test if a combinatorial strategy results in improved visual outcomes, a therapeutic agent, such as a TNF-alpha inhibitor (e.g., etanercept), D-Arg-2′6′-Dmt-Lys-Phe-NH2, or a combination of these pharmaceutical agents was assessed. […] Euthanized animals were evaluated for RGC dropout by flat mount. […]

2′6′-Dmt-D-Arg-Phe-Lys-NH2
penetration of the plasma membrane [1]: readily penetrates the plasma membrane
effect in combination with one or more additional therapeutic agents [2]: synergistic effects
severity of symptoms associated with TON [2]: reduced severity or elimination of one or more symptoms associated with TON

Nc1ccncc1 [4-AP, 4-aminopyridine]
RGC electrical activity measured by PERG [3]: significantly increased RGC electrical activity
RNFL and IPL thickness by OCT [4]: did not significantly improve

Cc1cc(O)cc(C)c1C[C@H](NC(=O)[C@H](N)CCCNC(=N)N)C(=O)N[C@@H](CCCCN)C(=O)N[C@@H](Cc1ccccc1)C(N)=O [D-Arg-2′6′-Dmt-Lys-Phe-NH2] (H-[dR][Dmt]KF-NH2)
safety of direct application to the eye ([5]; acute intravitreal injection, 1.3 μL of 100 nM): did not show evidence of toxicity
baseline electrophysiological recording of RGCs (PERG), treated vs control ([5]; uninjured baseline, left eye): substantially similar

F[dR]FK-NH2
effect in combination with one or more additional therapeutic agents [2]: synergistic effects
severity of symptoms associated with TON [2]: reduced severity or elimination of one or more symptoms associated with TON

etanercept
percent RGC survival [6]: 48.94% and 48.94±1.94%
percent RGC survival [7]: 97.08% and 97.08±2.21%
